According to US11413321B2, “Pharmaceutical composition for use in increasing hair, modifying scalp or skin, healing a wound, promoting osteogenesis, or modifying hair” (priority 2017, dated 2022):

Tests used:
Assay type in all cases: in vivo, Wistar rat
[1] = test system: full-thickness skin defect; assay: Wound healing score, circular full-thickness skin defect on the dorsal part
Procedure: Formation of wounds: hair on the dorsal part of a 12-week-old Wistar rat was shaven with hair clippers, and a circular full-thickness skin defect with a diameter of 8 mm was produced on each of the left and right sides of the head and the left and right sides of the tail. The full-thickness skin defect was formed at four locations per body.
Administration of milk: 20 μL of milk was subcutaneously injected at each of four locations, namely upper, lower, left and right, in a place 4 mm away from the peripheral edge of the wound. As the milk, the commercially available bovine milk sterilized by heating (at 130 degrees for 2 seconds and 65 degrees for 30 minutes) as described in Example 1 was used.
Administration of fatty acid: As a fatty acid contained in the milk, sterile purified water (administration liquid) containing palmitic acid, stearic acid, myristic acid, linolenic acid, α-linoleic acid and oleic acid, respectively was administered. Here, the water was heated and administered for the saturated fatty acids, and the water was administered at room temperature for the unsaturated fatty acids. 20 μL of the administration liquid (containing 1 mg of the fatty acid) was subcutaneously administered at each of four locations, namely upper, lower, left and right, in a place 4 mm away from the peripheral edge of the wound.
Score 4: The reduction ratio of the area of the wound site is 70% or more.
Score 3: The reduction ratio of the area of the wound site is 50% or more and less than 70%.
Score 2: The reduction ratio of the area of the wound site is 20% or more and less than 50%.
Score 1: The reduction ratio of the area of the wound site is less than 20%.
The result was given as a ratio obtained by dividing the above score by the score for physiological saline.
Two tubes of 8 mL of commercially available milk sterilized at a low temperature (65 degrees for 30 minutes) were centrifuged by a centrifugal separator (2600 g×6 minutes), 2 mL of one fourth of the supernatant exclusive of a whip portion was collected from each tube, the two collected liquids were combined to obtain 4 mL of a liquid, and 4 mL of the resulting liquid was stirred, and used for experiments (hereinafter, the obtained sample is referred to as a “centrifuged sample”). The obtained centrifuged sample was administered to the wound site at a dosage of 20 μL per location in the same manner as described above. The results are shown in “Centrifuged Sample” in FIG. 6A.
Next, a wound healing-promoting effect of lactoferrin was examined. As lactoferrin, Nice rim essence 62971 (trade name) purchased from Lion Corporation was used and administered at one location in an amount of 20 μg or 60 μg in the same manner as described above. Specifically, the lactoferrin was ground, and then thoroughly dissolved in purified water. The lactoferrin concentration was adjusted so that an injection amount of 20 μL included the above administration amount. The result was given as a value obtained by dividing each of scores after seven days and after ten days by the score for the physiological saline administration group.

[2] = test system: CD68-positive cells; assay: Immunohistological staining of rat dorsal skin after injection of fatty acids (CD68); conditions: 1 mg fatty acid in 20 μL per location; for number of CD68-positive cells (overall statement): a weak effect was observed overall
Procedure: (§1) Next, representative fatty acids contained in milk were administered to a 12-week-old Wistar rat at a plurality of locations on the dorsal skin as in Example 1(2) above, and a change in tissues by the administration was observed after the tissues were subjected to immunohistological staining. More specifically, physiological saline was administered in an amount of 20 μL per location, an administration liquid containing 1 mg of a fatty acid was administered in an amount of 20 μL per location, and a change in CD68-positive macrophage stained images and PPAR-γ-positive cell images by the administration was observed. Samples of the Wistar rat were obtained by sampling administration sites (four weeks after administration and eight weeks after administration). FIGS. 10A to 10G show the results. […] At saturated fatty acid injection sites, infiltration of a large number of CD68-positive cells was observed, and fibrillization of normal tissues was observed. Therefore, in FIGS. 10B to 10D, a change in fat tissues was examined at a location which was closest to the administration site and where normal tissues were maintained (non-fibrillization location).

[3] = test system: PPAR-γ-positive cells; assay: Immunohistological staining of rat dorsal skin after injection of fatty acids (PPAR-γ); conditions: 1 mg fatty acid in 20 μL per location; for number of PPAR-γ-positive cells at the administration site: four weeks after administration, vs physiological saline, FIGS. 10B-10G; for increase in the number of PPAR-γ-positive cells at the administration site: eight weeks after administration
Procedure: as §1

[4] = test system: CD68-positive cells; assay: Immunohistological staining of rat dorsal skin after forced oral lactoferrin (CD68); conditions: 300 mg oral once a day, eight weeks after administration, n=3; FIG. 9
Procedure: (§2) As a comparative test, lactoferrin was administered instead of milk, and whether the number of CD68-positive cells and the number of PPAR-γ-positive cells increased or not was examined. As lactoferrin, three tablets of Nice rim essence 62971 (manufactured by Lion Corporation) corresponding to 300 mg of active lactoferrin (amount ingested per day by a human) were orally administered to a 12-week-old Wistar rat (n=3). Administration was performed once a day with the tablets injected (forcedly ingested) into the stomach using a feeding needle. Eight weeks after administration, a paraffin-embedded section of the dorsal skin was prepared by a conventional method, and subjected to immunohistological staining.

[5] = test system: PPAR-γ-positive cells; assay: Immunohistological staining of rat dorsal skin after forced oral lactoferrin (PPAR-γ); conditions: 300 mg oral once a day, eight weeks after administration, n=3; FIG. 9
Procedure: as §2

[6] = 20 μL administration liquid containing 1 mg of the fatty acid at each of four locations, FIG. 6C
[7] = eight weeks after administration
[8] = four weeks after administration, vs physiological saline

Molecule	wound healing-promoting effect (score divided by the score for physiological saline) [1, 6]	number of CD68-positive cells (overall statement) [2]	number of CD68-positive cells at the administration site [2, 7]	number of CD68-positive cells at the administration site [2, 8]	number of PPAR-γ-positive cells at the administration site [3]	increase in the number of PPAR-γ-positive cells at the administration site [3]	wound healing-promoting effect (score divided by the score for physiological saline) ([1]; 20 μg or 60 μg per location in 20 μL, after seven days and after ten days, FIG. 6B)	number of CD68-positive cells in dorsal skin [4]	number of PPAR-γ-positive cells in dorsal skin [5]
CCCCC/C=C\C/C=C\CCCCCCCC(=O)O [linoleic acid]	weak wound healing-promoting effect	did not greatly increase	increased	did not remarkably increase	did not remarkably increase	–	–	–	–
CCCCCCCCCCCCCC(=O)O [myristic acid]	high promoting effect	–	maintained	increased	increased	maintained	–	–	–
CCCCCCCC/C=C\CCCCCCCC(=O)O [oleic acid]	weak wound healing-promoting effect	did not greatly increase	increased	did not remarkably increase	did not remarkably increase	–	–	–	–
CCCCCCCCCCCCCCCCCC(=O)O [stearic acid]	high promoting effect	–	maintained	increased	increased	maintained	–	–	–
CC/C=C\C/C=C\C/C=C\CCCCCCCC(=O)O [α-linolenic acid]	weak wound healing-promoting effect	did not greatly increase	increased	did not remarkably increase	did not remarkably increase	–	–	–	–
lactoferrin	–	–	–	–	–	–	did not exhibit a significant promoting effect	did not increase	did not increase
